Our source for the TGI and GI50 values is PubChem BioAssay (NCI).

Some test systems named below: ACHN renal; HS 578T breast; MDA-N; NCI-H23 lung; MCF7 breast; SF-268 CNS; HT29 colon; KM12 colon; PC-3 prostate; A498 renal; EKVX NSCLC.
Common to all, as to test: NCI tumour cell line growth inhibition, 48 h

Where “and” joins values, the source holds several entries; their conditions need not be identical. Identical values can stand only once.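 In this assay, cells in 96-well plates receive the compound at five concentrations for 48 hours. Endpoints are linearly interpolated between the surrounding concentrations. At the GI50, growth is halved. Definition used: TGI = concentration required for complete inhibition of growth.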

Turning to `CC1=NN(c2nc(N)nc(NS(=O)(=O)c3cc(C)c(Cl)cc3S)n2)C(C)(C)C1`, the TGI in the experiment on ACHN renal, in the experiment with HS 578T breast, with MDA-N, in the experiment on NCI-H23 lung, with MCF7 breast and in the experiment on SF-268 CNS was above 10 µM throughout. In addition, the TGI in the experiment on HT29 colon, in the experiment with KM12 colon, in the experiment on PC-3 prostate, with A498 renal and with EKVX NSCLC was above 10 µM in each case.
For the molecule `C[C@@H](CC(O)C(O)C(C)(C)O)C1CCC23CC12CCC1[C@@]2(C)CCC(O)C(C)(C)C2CC(OC2OC(CO)C(O)C(O)C2O)[C@]13C` (stereo partly specified), the TGI in the experiment with ACHN renal, in the experiment on HS 578T breast, in the experiment with MDA-N, with NCI-H23 lung, in the experiment with MCF7 breast and in the experiment with SF-268 CNS was above 10 µM throughout. For the same molecule, the TGI in the experiment with HT29 colon, in the experiment with KM12 colon, with PC-3 prostate, with A498 renal and in the experiment with EKVX NSCLC was above 10 µM throughout.
On to `CC(C)C1CNC(=O)C2(C=NC(C(C)C)CNC(=O)C3(C=N1)CCCO3)CCCO2` (stereo unspecified), for which the TGI in the experiment on ACHN renal, in the experiment on HS 578T breast, in the experiment on MDA-N, in the experiment with NCI-H23 lung, with MCF7 breast and with SF-268 CNS was above 10 µM each time. The TGI in the experiment with HT29 colon, in the experiment on KM12 colon, in the experiment with PC-3 prostate, with A498 renal and in the experiment with EKVX NSCLC was above 10 µM throughout.
For the molecule `CC1=CC(=O)CC2(C)CCC(C(C)CC(=O)CC(C)C)CC12OO` (stereo unspecified), the TGI was 30.8 µM and 31.4 µM with ACHN renal; 88.3 µM and > 100 µM in the experiment with HS 578T breast; 34.7 µM and 33.4 µM in the experiment on MDA-N; 39.8 µM and 54.9 µM in the experiment with NCI-H23 lung; 31.9 µM and 31.7 µM in the experiment with MCF7 breast; 44.1 µM and 32.6 µM with SF-268 CNS. Also, the TGI in the experiment with HT29 colon is 43.2 µM and 31.1 µM; with KM12 colon, 33.2 µM and 29.4 µM; with PC-3 prostate, 29.1 µM and 27.3 µM; with A498 renal, 31.5 µM and 49.4 µM; in the experiment on EKVX NSCLC it was 36.8 µM and 34.3 µM.
In the case of `O[C@]12C=C(c3nccc4c3[nH]c3ccccc34)[C@@H]3CCN(CCCC/C=C\CC1)C[C@@]31CC3/C=C\CCCCN3[C@H]12` (stereo partly specified), the TGI in the experiment with ACHN renal was determined as 1.05 µM; in the experiment with HS 578T breast, 2.9 µM; in the experiment with MDA-N it was 1.31 µM; in the experiment with NCI-H23 lung it was 2.53 µM; in the experiment with MCF7 breast, 1.83 µM; in the experiment on SF-268 CNS, 8.59 µM. The TGI with HT29 colon was determined as 1.36 µM; with KM12 colon it was 1.3 µM; with PC-3 prostate, 12 µM; in the experiment with A498 renal, 2.83 µM; with EKVX NSCLC it was 3.57 µM.
Take `O=C1Oc2ccccc2C1C/C(=N\Nc1ccccc1)c1ccccc1O` (stereo unspecified): the TGI with ACHN renal is above 100 µM; in the experiment on HS 578T breast it was above 100 µM; in the experiment on MDA-N, above 100 µM; in the experiment with NCI-H23 lung it was 74 µM; in the experiment with MCF7 breast it was above 100 µM; with SF-268 CNS, above 100 µM. Also, the TGI is 78.5 µM in the experiment on HT29 colon; 45.8 µM with KM12 colon; above 100 µM in the experiment on PC-3 prostate; above 100 µM with A498 renal; above 100 µM in the experiment on EKVX NSCLC.
As to `Clc1ccc(Cl)c(N=Nc2cc3c4c(c2)CCN4CCC3)c1`, the TGI with ACHN renal, in the experiment on HS 578T breast, in the experiment with MDA-N, with NCI-H23 lung, in the experiment on MCF7 breast and in the experiment on SF-268 CNS was above 10 µM in each case. In addition, the TGI in the experiment on HT29 colon, in the experiment on KM12 colon, with PC-3 prostate, in the experiment with A498 renal and with EKVX NSCLC was above 10 µM in each case.
Turning to `CC(CSC(=N)N)C(N)=O` (stereo unspecified), the TGI in the experiment on ACHN renal, in the experiment on HS 578T breast, in the experiment on MDA-N, in the experiment with NCI-H23 lung, in the experiment on MCF7 breast and in the experiment on SF-268 CNS was above 100 µM in each case. The TGI in the experiment with HT29 colon, in the experiment with KM12 colon, with PC-3 prostate, in the experiment with A498 renal and in the experiment with EKVX NSCLC was above 100 µM each time.
`[N-]=[N+]=Nc1ccccc1-c1ccccc1[N+](=O)[O-]`: the TGI in the experiment on ACHN renal, with HS 578T breast, in the experiment with MDA-N, in the experiment with NCI-H23 lung, in the experiment with MCF7 breast and in the experiment with SF-268 CNS was above 100 µM in each case. Moreover, the TGI in the experiment on HT29 colon, in the experiment on KM12 colon, in the experiment with PC-3 prostate, in the experiment with A498 renal and in the experiment with EKVX NSCLC was above 100 µM in each case.
Consider `NS(=O)(=O)c1ccc(NC(=O)N/N=C/c2ccccc2O)cc1`, for which the TGI is above 100 µM with ACHN renal; above 100 µM in the experiment on HS 578T breast; 70.2 µM with MDA-N; above 100 µM with NCI-H23 lung; above 100 µM with MCF7 breast; above 100 µM in the experiment with SF-268 CNS. Also, the TGI with HT29 colon, with KM12 colon, with PC-3 prostate, in the experiment on A498 renal and with EKVX NSCLC was above 100 µM throughout.
As for `COC1(CC[C@@H](C)COC2OC(CO)C(O)C(O)C2O)O[C@H]2C[C@H]3[C@@H]4CC=C5C[C@@H](OC6OC(CO)C(OC7OC(C)C(O)C(O)C7O)C(O)C6OC6OC(C)C(O)C(O)C6O)CC[C@]5(C)[C@H]4CC[C@]3(C)[C@H]2[C@@H]1C` (stereo partly specified), the GI50 in the experiment on ACHN renal is 6.24 µM; in the experiment with HS 578T breast it was 1.18 µM; in the experiment on NCI-H23 lung, 2.95 µM; with MCF7 breast it was 3.74 µM; in the experiment with SF-268 CNS, 2.38 µM; with HT29 colon, 1.89 µM. For the same molecule, the GI50 was 1.01 µM with KM12 colon, 3.86 µM in the experiment with A498 renal and 10 µM in the experiment with EKVX NSCLC. The TGI was 13.9 µM with ACHN renal; 3.99 µM in the experiment on HS 578T breast; 7.43 µM in the experiment on MDA-N; 9.14 µM in the experiment on NCI-H23 lung; 12.9 µM in the experiment with MCF7 breast; 6.76 µM in the experiment on SF-268 CNS. Moreover, the TGI was found to be 4.3 µM with HT29 colon; 2.65 µM in the experiment on KM12 colon; 9.58 µM in the experiment on PC-3 prostate; 9.76 µM in the experiment on A498 renal; 33.3 µM in the experiment with EKVX NSCLC.
Consider `CC(=O)OI1NC(=O)c2ccccc21`, for which the TGI in the experiment on ACHN renal, in the experiment with HS 578T breast, in the experiment on MDA-N, in the experiment on NCI-H23 lung, with MCF7 breast and in the experiment with SF-268 CNS was above 100 µM throughout. Moreover, the TGI in the experiment on HT29 colon, with KM12 colon, with PC-3 prostate, in the experiment on A498 renal and in the experiment on EKVX NSCLC was above 100 µM throughout.
Turning to `FC(F)(F)c1ccc(C2ON=C(c3ccccc3)N2C23CC4CC(CC(C4)C2)C3)cc1` (stereo unspecified), the TGI with ACHN renal, in the experiment with HS 578T breast, with MDA-N, in the experiment on NCI-H23 lung, in the experiment with MCF7 breast and with SF-268 CNS was above 10 µM in each case. Further, the TGI in the experiment with HT29 colon, with KM12 colon, with PC-3 prostate, in the experiment with A498 renal and with EKVX NSCLC was above 10 µM throughout.
In the case of `C1CNOCCCONCCCNOCCCONC1`, the TGI in the experiment with ACHN renal, in the experiment on HS 578T breast, in the experiment on MDA-N, with NCI-H23 lung, in the experiment on MCF7 breast and with SF-268 CNS was above 100 µM throughout. The TGI is above 100 µM in the experiment with HT29 colon; above 100 µM in the experiment with KM12 colon; 86 µM with PC-3 prostate; above 100 µM in the experiment on A498 renal; above 100 µM in the experiment on EKVX NSCLC.
Take `COc1ccc(C(O)/C(=N/N)c2nc3ccc(Cl)cc3[nH]c2=O)cc1` (stereo unspecified): the TGI with ACHN renal, in the experiment on HS 578T breast, in the experiment on MDA-N, in the experiment with NCI-H23 lung, in the experiment with MCF7 breast and in the experiment on SF-268 CNS was above 100 µM each time. The TGI in the experiment on HT29 colon, in the experiment with KM12 colon, with PC-3 prostate, in the experiment with A498 renal and in the experiment on EKVX NSCLC was above 100 µM in each case.
On to `O=C1N/C(=N\N=C\c2ccccc2)C(c2ccccc2)O1` (stereo unspecified), for which the TGI in the experiment on ACHN renal, in the experiment on HS 578T breast, in the experiment on MDA-N, in the experiment on NCI-H23 lung, in the experiment with MCF7 breast and in the experiment with SF-268 CNS was above 100 µM in each case. Besides, the TGI with HT29 colon, in the experiment with KM12 colon, with PC-3 prostate, with A498 renal and with EKVX NSCLC was above 100 µM throughout.
With `COc1ccc(C2c3cc4c(cc3OC(NNc3ccccc3)C2C)OCO4)cc1` (stereo unspecified), the TGI was 49.5 µM with ACHN renal; above 100 µM in the experiment with HS 578T breast; above 100 µM in the experiment with MDA-N; above 100 µM with NCI-H23 lung; 44.7 µM with MCF7 breast; above 100 µM in the experiment on SF-268 CNS. Besides, the TGI with HT29 colon was 51.7 µM; with KM12 colon it was above 100 µM; in the experiment with PC-3 prostate, above 100 µM; with A498 renal it was 76.9 µM; in the experiment with EKVX NSCLC, 24.3 µM.
